Data from US12599582B2, “Pyrrole compounds” (ALIGOS THERAPEUTICS, INC., priority 2019, dated 2026).
pEC50: −log10 of the molar value.

System: HBV
Assay: HBV-DNA Antiviral Assay Using HepG2.2.15 Cells (extracellular HBV DNA by qPCR)
Type: cell-based, hepatitis B virus (HBV)
Conditions: Hepatitis B virus; HBV DNA inhibition, HepG2.2.15 cells, extracellular HBV DNA by qPCR; read-out: EC50
Protocol: The following assay procedure describes the HBV antiviral assay. This assay uses HepG2.2.15 cells, which have been transfected with HBV genome, and extracellular HBV DNA quantification as endpoint. Cell viability is assessed in parallel by measuring the intracellular ATP content using the CellTiter-Glo® reagent from Promega.
On day 0, HepG2.2.15 cells were seeded in 96-well plates at a density of 6.0×10^4 cells/well (0.1 mL/well). The cells were incubated at 37° C. and 5% CO2.
On day 1, the test articles were diluted and added to cell culture wells (8 concentrations, 4-fold dilution, in duplicate). GLS4, Tenofovir and Sorafenib were used as reference compounds. 100 μL of culture medium containing the compounds was added to the plate, and the final total volume per well was 200 μL. The final concentration of DMSO in the culture medium was 0.5%. The plate map of compound treatment is shown below. The cells were cultured at 37° C. and 5% CO2 for 3 days.
On day 4, the plates were refreshed with culture media with compounds.
On day 7, cell viability was assessed using the CellTiter-Glo®, and the cell culture supernatants were collected for determination of HBV DNA by qPCR.
Extracellular DNA was isolated with QIAamp 96 DNA Blood Kit per the manufacturer's manual. HBV DNA was then quantified by qPCR with HBV specific primers and probes as specified in Table 1 using the FastStart Universal MasterMix from Roche on an ABI-7900HT. The PCR cycle program consisted of 95° C. for 10 min, followed by 40 cycles at 95° C. for 15 sec and 60° C. for 1 min.
A DNA standard was prepared by dilution of the pAAV2 HBV1.3 plasmid with concentrations ranging from 10 to 1×10^7 copies/uL and used to generate a standard curve by plotting Ct value vs. the concentration of the HBV plasmid DNA standard. The quantity of HBV DNA in each sample was determined by interpolating from the standard curve.
Cell viability was calculated as follows: % Cell viability=(luminescence value of test sample−average luminescence value of blank)/(average luminescence value of 0.5% DMSO control−average luminescence of blank)×100%. HBV DNA inhibition was calculated as follows: 100−(HBV DNA copy number of test sample−HBV DNA copy number of ETV)/HBV DNA copy number of 0.5% DMSO control−HBV DNA copy number of ETV)×100%. The CC50, EC50 and EC90 values were determined by dose-response curves fitted by GraphPad Prism using “log (agonist) vs. response—Variable slope”.

SMILES | pEC50
Cc1c(C(=O)C(=O)NC(C)(C)c2nccs2)c(C)n(C)c1C(=O)Nc1ccc(F)c(C#N)c1 [Compound 85, N-(3-cyano-4-fluoro-phenyl)-1,3,5-trimethyl-4-[2-[(1-methyl-1-thiazol-2-yl-ethyl)amino]-2-oxo-acetyl]pyrrole-2-carboxamide] | 8.00 to 9.00
C=CC1(NC(=O)C(=O)c2c(C)c(C(=O)Nc3ccc(F)c(C#N)c3)n(C)c2C)COC1 [Compound 33, N-(3-cyano-4-fluoro-phenyl)-1,3,5-trimethyl-4-[2-oxo-2-[(3-vinyloxetan-3-yl)amino]acetyl]pyrrole-2-carboxamide] | 8.00 to 9.00
C#C[C@@H](CCO)NC(=O)C(=O)c1c(C)c(C(=O)Nc2ccc(F)c(C#N)c2)n(C)c1C [Compound 61a, N-(3-cyano-4-fluoro-phenyl)-1,3,5-trimethyl-4-[2-oxo-2-[[(1R)-1-(2-hydroxyethyl)prop-2-ynyl]amino]acetyl]pyrrole-2-carboxamide] | 8.00 to 9.00
Cc1c(C(=O)C(=O)NC(C)(C)c2ccc[nH]c2=O)c(C)n(C)c1C(=O)Nc1ccc(F)c(C#N)c1 [Compound 161, N-(3-cyano-4-fluoro-phenyl)-1,3,5-trimethyl-4-[2-[[1-methyl-1-(2-oxo-1H-pyridin-3-yl)ethyl]amino]-2-oxo-acetyl]pyrrole-2-carboxamide] | 8.00 to 9.00
C#CCNC(=O)C(=O)c1cc(C(=O)Nc2ccc(F)c(C#N)c2)n(C)c1C [Compound 27, N-(3-cyano-4-fluoro-phenyl)-1,5-dimethyl-4-[2-oxo-2-(prop-2-ynylamino)acetyl]pyrrole-2-carboxamide] | 7.00 to 8.00
C#CCNC(=O)C(=O)c1cc(C(=O)Nc2ccc(F)c(C#N)c2)n(C)c1 [Compound 3, N-(3-cyano-4-fluoro-phenyl)-1-methyl-4-[2-oxo-2-(prop-2-ynylamino)acetyl]pyrrole-2-carboxamide] | < 6.00
C#C[C@@](CO)(NC(=O)C(=O)c1c(C)c(C(=O)Nc2ccc(F)c(C(F)(F)F)c2)n(C)c1C)C(F)(F)F [Compound 75b, N-[4-fluoro-3-(trifluoromethyl)phenyl]-1,3,5-trimethyl-4-[2-oxo-2-[[(1S)-1-(hydroxymethyl)-1-(trifluoromethyl)prop-2-ynyl]amino]acetyl]pyrrole-2-carboxamide] | 7.00 to 8.00
Cc1c(C(=O)C(=O)NC(C)(C)c2cncnc2)c(C)n(C)c1C(=O)Nc1ccc(F)c(C#N)c1 [Compound 144, N-(3-cyano-4-fluoro-phenyl)-1,3,5-trimethyl-4-[2-[(1-methyl-1-pyrimidin-5-yl-ethyl)amino]-2-oxo-acetyl]pyrrole-2-carboxamide] | 8.00 to 9.00
Cc1c(C(=O)C(=O)NC(C)(C)c2ncc[nH]2)c(C)n(C)c1C(=O)Nc1ccc(F)c(C(F)(F)F)c1 [Compound 132, N-[4-fluoro-3-(trifluoromethyl)phenyl]-4-[2-[[1-(1H-imidazol-2-yl)-1-methyl-ethyl]amino]-2-oxo-acetyl]-1,3,5-trimethyl-pyrrole-2-carboxamide] | 8.00 to 9.00
Cc1c(C(=O)C(=O)NC(C)(C)c2cscn2)c(C)n(C)c1C(=O)Nc1ccc(F)c(C(F)(F)F)c1 [Compound 141, N-[4-fluoro-3-(trifluoromethyl)phenyl]-1,3,5-trimethyl-4-[2-[(1-methyl-1-thiazol-4-yl-ethyl)amino]-2-oxo-acetyl]pyrrole-2-carboxamide] | 8.00 to 9.00
Cc1c(C(=O)C(=O)NC(C)(C)c2ccccn2)c(C)n(C)c1C(=O)Nc1ccc(F)c(C(F)(F)F)c1 [Compound 99, N-[4-fluoro-3-(trifluoromethyl)phenyl]-1,3,5-trimethyl-4-[2-[[1-methyl-1-(2-pyridyl)ethyl]amino]-2-oxo-acetyl]pyrrole-2-carboxamide] | 8.00 to 9.00
C#CC(CC)(CC)NC(=O)C(=O)c1c(C)c(C(=O)Nc2ccc(F)c(F)c2)n(C)c1C [Compound 89, 4-[2-(1,1-diethylprop-2-ynylamino)-2-oxo-acetyl]-N-(3,4-difluorophenyl)-1,3,5-trimethyl-pyrrole-2-carboxamide] | 8.00 to 9.00
C#CCNC(=O)C(=O)c1cc(C(=O)Nc2ccc(F)c(C#N)c2)n(C)c1Cl [Compound 25, 5-chloro-N-(3-cyano-4-fluoro-phenyl)-1-methyl-4-[2-oxo-2-(prop-2-ynylamino)acetyl]pyrrole-2-carboxamide] | 6.00 to 7.00
C#C[C@H](C)NC(=O)C(=O)c1c(C)c(C(=O)Nc2ccc(F)c(C#N)c2)n(C)c1C [Compound 17b, N-(3-cyano-4-fluoro-phenyl)-1,3,5-trimethyl-4-[2-oxo-2-[[(1S)-1-methylprop-2-ynyl]amino]acetyl]pyrrole-2-carboxamide] | 8.00 to 9.00
C#C[C@@H](C)NC(=O)C(=O)c1c(C)c(C(=O)Nc2ccc(F)c(C#N)c2)n(C)c1C [Compound 17a, N-(3-cyano-4-fluoro-phenyl)-1,3,5-trimethyl-4-[2-oxo-2-[[(1R)-1-methylprop-2-ynyl]amino]acetyl]pyrrole-2-carboxamide] | 8.00 to 9.00
Cc1c(C(=O)C(=O)NC2(C#CC3(O)CC3)COC2)c(C)n(C)c1C(=O)Nc1ccc(F)c(C#N)c1 [Compound 102, N-(3-cyano-4-fluoro-phenyl)-4-[2-[[3-[2-(1-hydroxycyclopropyl)ethynyl]oxetan-3-yl]amino]-2-oxo-acetyl]-1,3,5-trimethyl-pyrrole-2-carboxamide] | 8.00 to 9.00
C#CCNC(=O)C(=O)c1c(C)c(C(=O)Nc2ccc(F)c(C(F)(F)F)c2)n(C)c1C [Compound 1, N-[4-fluoro-3-(trifluoromethyl)phenyl]-1,3,5-trimethyl-4-[2-oxo-2-(prop-2-ynylamino)acetyl]pyrrole-2-carboxamide] | 8.00 to 9.00
Cc1c(C(=O)C(=O)NC(C)(C)c2cscn2)c(C)n(C)c1C(=O)Nc1ccc(F)c(C#N)c1 [Compound 140, N-(3-cyano-4-fluoro-phenyl)-1,3,5-trimethyl-4-[2-[(1-methyl-1-thiazol-4-yl-ethyl)amino]-2-oxo-acetyl]pyrrole-2-carboxamide] | 8.00 to 9.00
C=C[C@](CO)(NC(=O)C(=O)c1c(C)c(C(=O)Nc2ccc(F)c(C(F)(F)F)c2)n(C)c1C)C(F)(F)F [Compound 80a, N-[4-fluoro-3-(trifluoromethyl)phenyl]-1,3,5-trimethyl-4-[2-oxo-2-[[(1R)-1-(hydroxymethyl)-1-(trifluoromethyl)allyl]amino]acetyl]pyrrole-2-carboxamide] | 8.00 to 9.00
C#CCNC(=O)C(=O)c1c(F)c(C(=O)Nc2ccc(F)c(C#N)c2)n(C)c1Br [Compound 20, 5-bromo-N-(3-cyano-4-fluoro-phenyl)-3-fluoro-1-methyl-4-[2-oxo-2-(prop-2-ynylamino)acetyl]pyrrole-2-carboxamide] | 7.00 to 8.00
Cc1c(C(=O)C(=O)NC(C)(C)c2ccncc2)c(C)n(C)c1C(=O)Nc1ccc(F)c(C#N)c1 [Compound 93, N-(3-cyano-4-fluoro-phenyl)-1,3,5-trimethyl-4-[2-[[1-methyl-1-(4-pyridyl)ethyl]amino]-2-oxo-acetyl]pyrrole-2-carboxamide] | 8.00 to 9.00
C#C[C@H](NC(=O)C(=O)c1c(C)c(C(=O)Nc2ccc(F)c(C(F)(F)F)c2)n(C)c1C)C1CC1 [Compound 38a, N-[4-fluoro-3-(trifluoromethyl)phenyl]-1,3,5-trimethyl-4-[2-oxo-2-[[(1R)-1-cyclopropylprop-2-ynyl]amino]acetyl]pyrrole-2-carboxamide] | > 9.00
Cc1c(C(=O)C(=O)NC2(c3ncc[nH]3)COC2)c(C)n(C)c1C(=O)Nc1ccc(F)c(C(F)(F)F)c1 [Compound 155, N-[4-fluoro-3-(trifluoromethyl)phenyl]-4-[2-[[3-(1H-imidazol-2-yl)oxetan-3-yl]amino]-2-oxo-acetyl]-1,3,5-trimethyl-pyrrole-2-carboxamide] | 8.00 to 9.00
C#CC1(NC(=O)C(=O)c2c(C)c(C(=O)Nc3ccc(F)c(C(F)F)c3)n(C)c2Cl)CC(F)(F)C1 [Compound 81, 5-chloro-N-[3-(difluoromethyl)-4-fluoro-phenyl]-4-[2-[(1-ethynyl-3,3-difluoro-cyclobutyl)amino]-2-oxo-acetyl]-1,3-dimethyl-pyrrole-2-carboxamide] | 8.00 to 9.00
C#C[C@H](CCO)NC(=O)C(=O)c1c(C)c(C(=O)Nc2ccc(F)c(C#N)c2)n(C)c1C [Compound 61b, N-(3-cyano-4-fluoro-phenyl)-1,3,5-trimethyl-4-[2-oxo-2-[[(1S)-1-(2-hydroxyethyl)prop-2-ynyl]amino]acetyl]pyrrole-2-carboxamide] | 8.00 to 9.00
